# In patent US10159640B2, “Prebiotic oral care compositions containing amino acids” (COLGATE-PALMOLIVE COMPANY, priority 2013, dated 2018):
# Experiments:
# Assay in all cases: Biofilm growth assay in BHI, crystal violet
# Type in all cases: cell-based
# Settings in all cases: control = 1
# Actinomyces naeslundii = tested on: Actinomyces naeslundii
# Procedure: (§1) The increase in biofilm formation of the tested bacteria in response to selected compounds (Met-Pro, Phe-Glu) was investigated by setting up biofilm growth assays in a nutritionally rich medium (brain heart infusion broth (BHI), Oxoid), over 48 hours. Late exponential growth phase liquid cultures were prepared by transferring the respective bacterium from blood agar plates to BHI and overnight incubation at 37° C. in an anaerobic atmosphere for A. viscosus, V. parvula, F. nucleatum, P. gingivalis, P. intermedia, T. forsythia, A. naeslundii, and C. sputigena, and in a 5% CO2 environment for S. salivarius, S. sanguinis, S. mitis, A. actinomycetemcomitans, S. mutans, and S. gordonii. Overnight cultures were transferred to BHI and adjusted to a concentration of 1×10^7 CFU/ml by measuring the optical density at 600 nm (OD600) (BioRad SmartSpec 3000). For each strain, 200 μl of the bacterial suspension was added to a 96-well plate containing 20 μl of the respective di-peptides. Final concentrations of the di-peptides were set to 5, 10, 20 and 25 μmol/ml. […] Additionally, for each bacterium tested, a background control, to correct for background staining, was added. This background control contained the bacterium tested and 0.03 weight % chlorhexidine, as an antiseptic. Plates were incubated as previously described. After 48 hrs the supernatant was removed from the wells of the plates. The wells were washed twice with 1×100 μL PBS (phosphate buffered saline), fixed for 20 minutes with 96% vol. ethanol (96% vol. solution in water) and the biofilm retained at the bottom of the wells was stained with 1 weight % crystal violet (1 weight % solution in water). The bound dye was dissolved with 5% vol. acetic acid (5% vol. solution in water). Quantification of the stained biofilm was performed by measuring the absorbance at 630 nm using a Multiskan Ascent microplate reader (Thermo Scientific).
# (§2) The experiment was carried out on three different days (thus providing 3 biological replicas) and each day the experiment was carried out in quadruple (thus providing 4 technical replicas) for each combination of bacterium with dipeptide and for each control. For each day and for each combination, the average (mean) of the values obtained (as detailed above) for the four technical replicas was calculated to provide a single value for each combination on each day. The values shown in Tables 7 to 8, below, are the average (mean) of the three single values obtained for each combination of bacterium with dipeptide.
# Actinomyces viscosus = tested on: Actinomyces viscosus
# Procedure: as §1, §2
# [1] = tested on: Aggregatibacter actinomycetemcomitans
# Procedure: as §1, §2
# Capnocytophaga sputigena = tested on: Capnocytophaga sputigena
# Procedure: as §1, §2
# Fusobacterium nucleatum = tested on: Fusobacterium nucleatum
# Procedure: as §1, §2
# Porphyromonas gingivalis = tested on: Porphyromonas gingivalis
# Procedure: as §1, §2
# Prevotella intermedia = tested on: Prevotella intermedia
# Procedure: as §1, §2
# Streptococcus gordonii = tested on: Streptococcus gordonii
# Procedure: as §1, §2
# Streptococcus mitis = tested on: Streptococcus mitis
# Procedure: as §1, §2
# Streptococcus mutans = tested on: Streptococcus mutans
# Procedure: as §1, §2
# Streptococcus salivarius = tested on: Streptococcus salivarius
# Procedure: as §1, §2
# Streptococcus sanguinis = tested on: Streptococcus sanguinis
# Procedure: as §1, §2
# Tannerella forsythia = tested on: Tannerella forsythia
# Procedure: as §1, §2
# Veillonella parvula = tested on: Veillonella parvula
# Procedure: as §1, §2
substance,measurement,setting,value
Phe-Glu,biofilm growth: OD 630 nm (crystal violet) at 48 hrs divided by OD of control,Actinomyces naeslundii; 5 μmol/ml,0.9914
same,biofilm growth: OD 630 nm (crystal violet) at 48 hrs divided by OD of control,Actinomyces naeslundii; 10 μmol/ml,0.4234
same,biofilm growth: OD 630 nm (crystal violet) at 48 hrs divided by OD of control,Actinomyces naeslundii; 20 μmol/ml,0.0174
same,biofilm growth: OD 630 nm (crystal violet) at 48 hrs divided by OD of control,Actinomyces naeslundii; 25 μmol/ml,0.0067
same,biofilm growth: OD 630 nm (crystal violet) at 48 hrs divided by OD of control,Actinomyces viscosus; 5 μmol/ml,1.3972
same,biofilm growth: OD 630 nm (crystal violet) at 48 hrs divided by OD of control,Actinomyces viscosus; 10 μmol/ml,1.2242
same,biofilm growth: OD 630 nm (crystal violet) at 48 hrs divided by OD of control,Actinomyces viscosus; 20 μmol/ml,0.0684
same,biofilm growth: OD 630 nm (crystal violet) at 48 hrs divided by OD of control,Actinomyces viscosus; 25 μmol/ml,0.0490
same,biofilm growth: OD 630 nm (crystal violet) at 48 hrs divided by OD of control,[1]; 5 μmol/ml,0.5867
same,biofilm growth: OD 630 nm (crystal violet) at 48 hrs divided by OD of control,[1]; 10 μmol/ml,0.3454
same,biofilm growth: OD 630 nm (crystal violet) at 48 hrs divided by OD of control,[1]; 20 μmol/ml,0.0481
same,biofilm growth: OD 630 nm (crystal violet) at 48 hrs divided by OD of control,[1]; 25 μmol/ml,0.0212
same,biofilm growth: OD 630 nm (crystal violet) at 48 hrs divided by OD of control,Capnocytophaga sputigena; 5 μmol/ml,0.1909
same,biofilm growth: OD 630 nm (crystal violet) at 48 hrs divided by OD of control,Capnocytophaga sputigena; 10 μmol/ml,0.1079
same,biofilm growth: OD 630 nm (crystal violet) at 48 hrs divided by OD of control,Capnocytophaga sputigena; 20 μmol/ml,0.1578
same,biofilm growth: OD 630 nm (crystal violet) at 48 hrs divided by OD of control,Capnocytophaga sputigena; 25 μmol/ml,0.2648
same,biofilm growth: OD 630 nm (crystal violet) at 48 hrs divided by OD of control,Fusobacterium nucleatum; 5 μmol/ml,0.2553
same,biofilm growth: OD 630 nm (crystal violet) at 48 hrs divided by OD of control,Fusobacterium nucleatum; 10 μmol/ml,0.2232
same,biofilm growth: OD 630 nm (crystal violet) at 48 hrs divided by OD of control,Fusobacterium nucleatum; 20 μmol/ml,0.0056
same,biofilm growth: OD 630 nm (crystal violet) at 48 hrs divided by OD of control,Fusobacterium nucleatum; 25 μmol/ml,0.0112
same,biofilm growth: OD 630 nm (crystal violet) at 48 hrs divided by OD of control,Porphyromonas gingivalis; 5 μmol/ml,0.7552
same,biofilm growth: OD 630 nm (crystal violet) at 48 hrs divided by OD of control,Porphyromonas gingivalis; 10 μmol/ml,0.9004
same,biofilm growth: OD 630 nm (crystal violet) at 48 hrs divided by OD of control,Porphyromonas gingivalis; 20 μmol/ml,0.1717
same,biofilm growth: OD 630 nm (crystal violet) at 48 hrs divided by OD of control,Porphyromonas gingivalis; 25 μmol/ml,0.3008
same,biofilm growth: OD 630 nm (crystal violet) at 48 hrs divided by OD of control,Prevotella intermedia; 5 μmol/ml,0.7904
same,biofilm growth: OD 630 nm (crystal violet) at 48 hrs divided by OD of control,Prevotella intermedia; 10 μmol/ml,0.1852
same,biofilm growth: OD 630 nm (crystal violet) at 48 hrs divided by OD of control,Prevotella intermedia; 20 μmol/ml,0.2103
same,biofilm growth: OD 630 nm (crystal violet) at 48 hrs divided by OD of control,Prevotella intermedia; 25 μmol/ml,0.2516
same,biofilm growth: OD 630 nm (crystal violet) at 48 hrs divided by OD of control,Streptococcus gordonii; 5 μmol/ml,1.8315
same,biofilm growth: OD 630 nm (crystal violet) at 48 hrs divided by OD of control,Streptococcus gordonii; 10 μmol/ml,1.7019
same,biofilm growth: OD 630 nm (crystal violet) at 48 hrs divided by OD of control,Streptococcus gordonii; 20 μmol/ml,0.6462
same,biofilm growth: OD 630 nm (crystal violet) at 48 hrs divided by OD of control,Streptococcus gordonii; 25 μmol/ml,0.2237
same,biofilm growth: OD 630 nm (crystal violet) at 48 hrs divided by OD of control,Streptococcus mitis; 5 μmol/ml,0.7237
same,biofilm growth: OD 630 nm (crystal violet) at 48 hrs divided by OD of control,Streptococcus mitis; 10 μmol/ml,0.0179
same,biofilm growth: OD 630 nm (crystal violet) at 48 hrs divided by OD of control,Streptococcus mitis; 20 μmol/ml,0.0264
same,biofilm growth: OD 630 nm (crystal violet) at 48 hrs divided by OD of control,Streptococcus mitis; 25 μmol/ml,0.1018
same,biofilm growth: OD 630 nm (crystal violet) at 48 hrs divided by OD of control,Streptococcus mutans; 5 μmol/ml,0.0781
same,biofilm growth: OD 630 nm (crystal violet) at 48 hrs divided by OD of control,Streptococcus mutans; 10 μmol/ml,0.5693
same,biofilm growth: OD 630 nm (crystal violet) at 48 hrs divided by OD of control,Streptococcus mutans; 20 μmol/ml,1.2009
same,biofilm growth: OD 630 nm (crystal violet) at 48 hrs divided by OD of control,Streptococcus mutans; 25 μmol/ml,0.4072
same,biofilm growth: OD 630 nm (crystal violet) at 48 hrs divided by OD of control,Streptococcus salivarius; 5 μmol/ml,1.4007
same,biofilm growth: OD 630 nm (crystal violet) at 48 hrs divided by OD of control,Streptococcus salivarius; 10 μmol/ml,1.0359
same,biofilm growth: OD 630 nm (crystal violet) at 48 hrs divided by OD of control,Streptococcus salivarius; 20 μmol/ml,0.8978
same,biofilm growth: OD 630 nm (crystal violet) at 48 hrs divided by OD of control,Streptococcus salivarius; 25 μmol/ml,0.7342
same,biofilm growth: OD 630 nm (crystal violet) at 48 hrs divided by OD of control,Streptococcus sanguinis; 5 μmol/ml,1.2254
same,biofilm growth: OD 630 nm (crystal violet) at 48 hrs divided by OD of control,Streptococcus sanguinis; 10 μmol/ml,1.0551
same,biofilm growth: OD 630 nm (crystal violet) at 48 hrs divided by OD of control,Streptococcus sanguinis; 20 μmol/ml,0.5417
same,biofilm growth: OD 630 nm (crystal violet) at 48 hrs divided by OD of control,Streptococcus sanguinis; 25 μmol/ml,0.4820
same,biofilm growth: OD 630 nm (crystal violet) at 48 hrs divided by OD of control,Tannerella forsythia; 5 μmol/ml,0.5744
same,biofilm growth: OD 630 nm (crystal violet) at 48 hrs divided by OD of control,Tannerella forsythia; 10 μmol/ml,0.3083
same,biofilm growth: OD 630 nm (crystal violet) at 48 hrs divided by OD of control,Tannerella forsythia; 20 μmol/ml,0.0188
same,biofilm growth: OD 630 nm (crystal violet) at 48 hrs divided by OD of control,Tannerella forsythia; 25 μmol/ml,0.0254
same,biofilm growth: OD 630 nm (crystal violet) at 48 hrs divided by OD of control,Veillonella parvula; 5 μmol/ml,0.3257
same,biofilm growth: OD 630 nm (crystal violet) at 48 hrs divided by OD of control,Veillonella parvula; 10 μmol/ml,0.3136
same,biofilm growth: OD 630 nm (crystal violet) at 48 hrs divided by OD of control,Veillonella parvula; 20 μmol/ml,0.1638
same,biofilm growth: OD 630 nm (crystal violet) at 48 hrs divided by OD of control,Veillonella parvula; 25 μmol/ml,0.2969
